From patent US11058678B2 (Enanta Pharmaceuticals, Inc., priority 2018, dated 2021)

system: HBV (2.2.15 cells); assay: Antiviral activity in 2.2.15 cells: reduction of viral product accumulation (qPCR of lysates, HBsAg or HBeAg ELISA); assay type: cell-based, hepatitis B virus (HBV); details: Hepatitis B virus, 120 h, day 5 post treatment, 50% reduction of viral product accumulation in lysates or supernatants vs no drug controls, readout (qPCR, HBsAg, HBeAg) not specified
Summary of the method: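 HBV-producing 2.2.15 cells, 35,000/well, treated with 5-fold serial compound dilutions at 0.5% final DMSO for 5 days. Lysate HBV DNA by qPCR or supernatant HBsAg/HBeAg by ELISA; EC50 is 50% reduction versus no-drug control, binned A<0.1 μM, B 0.1-1 μM, C>1 μM.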

First: CC(C)(C)[C@@H]1Cc2c(cc(N3CCOCC3)c3c2CCO3)-c2cc(=O)c(C(=O)O)cn21 [Example 118, (S)-5-(tert-butyl)-12-morpholino-9-oxo-2,3,4,9-tetrahydro-5H-furo[3,2-f]pyrido[2,1-a]isoquinoline-8-carboxylic Acid]
Second: CC(C)(C)[C@@H]1Cc2c(cc(N3CC4(COC4)C3)c3c2CCO3)-c2cc(=O)c(C(=O)O)cn21 [Example 119, (S)-5-(tert-butyl)-9-oxo-12-(2-oxa-6-azaspiro[3.3]heptan-6-yl)-2,3,4,9-tetrahydro-5H-furo[3,2-f]pyrido[2,1-a]isoquinoline-8-carboxylic Acid]
The EC50 of the first is lower: < 0.1 µM for the first, > 1 µM for the second.

First: CC(C)(C)[C@@H]1Cc2c(cc(N3CC4(CCO4)C3)c3c2CCO3)-c2cc(=O)c(C(=O)O)cn21 [Example 120, (S)-5-(tert-butyl)-9-oxo-12-(1-oxa-6-azaspiro[3.3]heptan-6-yl)-2,3,4,9-tetrahydro-5H-furo[3,2-f]pyrido[2,1-a]isoquinoline-8-carboxylic Acid]
Second: CC(C)(C)[C@@H]1Cc2c(cc(C3COC3)c3c2CCO3)-c2cc(=O)c(C(=O)O)cn21 [Example 131, (S)-5-(tert-butyl)-12-(oxetan-3-yl)-9-oxo-2,3,4,9-tetrahydro-5H-furo[3,2-f]pyrido[2,1-a]isoquinoline-8-carboxylic Acid]
The EC50 of the first is higher: > 1 µM for the first, < 0.1 µM for the second. The second is the more potent here.

`COCCCOc1cc2c(cc1-c1cnco1)-c1cc(=O)c(C(=O)O)cn1[C@H]1[C@@H]2COC1(C)C` [Example 121, (3aS,12bR)-11-(3-methoxypropoxy)-3,3-dimethyl-10-(oxazol-5-yl)-7-oxo-3,3a,7,12b-tetrahydro-1H-furo[3,4-c]pyrido[2,1-a]isoquinoline-6-carboxylic Acid] and `COCCCOc1cc2c(cc1-c1ccco1)-c1cc(=O)c(C(=O)O)cn1[C@H]1[C@@H]2COC1(C)C` [Example 125, (3aS,12bR)-10-(furan-2-yl)-11-(3-methoxypropoxy)-3,3-dimethyl-7-oxo-3,3a,7,12b-tetrahydro-1H-furo[3,4-c]pyrido[2,1-a]isoquinoline-6-carboxylic Acid] cannot be ordered by EC50: < 0.1 µM for the first, < 0.1 µM for the second.

Going from `COCCCOc1cc2c(cc1-c1ccnn1C)-c1cc(=O)c(C(=O)O)cn1[C@H]1[C@@H]2COC1(C)C` [Example 122, (3aS,12bR)-11-(3-methoxypropoxy)-3,3-dimethyl-10-(1-methyl-1H-pyrazol-5-yl)-7-oxo-3,3a,7,12b-tetrahydro-1H-furo[3,4-c]pyrido[2,1-a]isoquinoline-6-carboxylic Acid] to `COCCCOc1cc2c(cc1-c1cnn(C)c1)-c1cc(=O)c(C(=O)O)cn1[C@H]1[C@@H]2COC1(C)C` [Example 123, (3aS,12bR)-11-(3-methoxypropoxy)-3,3-dimethyl-10-(1-methyl-1H-pyrazol-4-yl)-7-oxo-3,3a,7,12b-tetrahydro-1H-furo[3,4-c]pyrido[2,1-a]isoquinoline-6-carboxylic Acid], the EC50 falls from > 1 µM to < 0.1 µM.

`COCCCOc1cc2c(cc1-c1ccn(C)n1)-c1cc(=O)c(C(=O)O)cn1[C@H]1[C@@H]2COC1(C)C` [Example 124, (3aS,12bR)-11-(3-methoxypropoxy)-3,3-dimethyl-10-(1-methyl-1H-pyrazol-3-yl)-7-oxo-3,3a,7,12b-tetrahydro-1H-furo[3,4-c]pyrido[2,1-a]isoquinoline-6-carboxylic Acid] and `COCCCOc1cc2c(cc1-c1ccoc1)-c1cc(=O)c(C(=O)O)cn1[C@H]1[C@@H]2COC1(C)C` [Example 126, (3aS,12bR)-10-(furan-3-yl)-11-(3-methoxypropoxy)-3,3-dimethyl-7-oxo-3,3a,7,12b-tetrahydro-1H-furo[3,4-c]pyrido[2,1-a]isoquinoline-6-carboxylic Acid] cannot be ordered by EC50: < 0.1 µM for the first, < 0.1 µM for the second.

`COCCCOc1cc2c(cc1-c1cnsc1)-c1cc(=O)c(C(=O)O)cn1[C@H]1[C@@H]2COC1(C)C` [Example 127, (3aS,12bR)-10-(isothiazol-4-yl)-11-(3-methoxypropoxy)-3,3-dimethyl-7-oxo-3,3a,7,12b-tetrahydro-1H-furo[3,4-c]pyrido[2,1-a]isoquinoline-6-carboxylic Acid] and `COCCCOc1cc2c(cc1-c1cn[nH]c1)-c1cc(=O)c(C(=O)O)cn1[C@H]1[C@@H]2COC1(C)C` [Example 135, (3aS,12bR)-11-(3-methoxypropoxy)-3,3-dimethyl-7-oxo-10-(1H-pyrazol-4-yl)-3,3a,7,12b-tetrahydro-1H-furo[3,4-c]pyrido[2,1-a]isoquinoline-6-carboxylic Acid] cannot be ordered by EC50: < 0.1 µM for the first, < 0.1 µM for the second.

`COCCCOc1cc2c(cc1-c1cccnc1)-c1cc(=O)c(C(=O)O)cn1[C@H]1[C@@H]2COC1(C)C` [Example 128, (3aS,12bR)-11-(3-methoxypropoxy)-3,3-dimethyl-7-oxo-10-(pyridin-3-yl)-3,3a,7,12b-tetrahydro-1H-furo[3,4-c]pyrido[2,1-a]isoquinoline-6-carboxylic Acid] and `COCCCOc1cc2c(cc1-c1ccccc1)-c1cc(=O)c(C(=O)O)cn1[C@H]1[C@@H]2COC1(C)C` [Example 141] cannot be ordered by EC50: < 0.1 µM for the first, < 0.1 µM for the second.

`CC(C)(C)[C@@H]1Cc2c(cc(C3CCCO3)c3c2CCO3)-c2cc(=O)c(C(=O)O)cn21` (stereo partly drawn) [Example 129, (5S)-5-(tert-butyl)-9-oxo-12-(tetrahydrofuran-2-yl)-2,3,4,9-tetrahydro-5H-furo[3,2-f]pyrido[2,1-a]isoquinoline-8-carboxylic Acid] and `CC(C)(C)[C@@H]1Cc2c(cc(C3CCOC3)c3c2CCO3)-c2cc(=O)c(C(=O)O)cn21` (stereo partly drawn) [Example 130, (5S)-5-(tert-butyl)-9-oxo-12-(tetrahydrofuran-3-yl)-2,3,4,9-tetrahydro-5H-furo[3,2-f]pyrido[2,1-a]isoquinoline-8-carboxylic Acid] cannot be ordered by EC50: < 0.1 µM for the first, < 0.1 µM for the second.

Compared with `CC1(C)Cc2c3c(cc(-c4ccoc4)c2O1)-c1cc(=O)c(C(=O)O)cn1[C@H](C(C)(C)C)C3` [Example 133, (S)-5-(tert-butyl)-12-(furan-3-yl)-2,2-dimethyl-9-oxo-2,3,4,9-tetrahydro-5H-furo[3,2-f]pyrido[2,1-a]isoquinoline-8-carboxylic acid], `CC1(C)Cc2c3c(cc(-c4cnsc4)c2O1)-c1cc(=O)c(C(=O)O)cn1[C@H](C(C)(C)C)C3` [Example 145, (S)-5-(tert-butyl)-12-(isothiazol-4-yl)-2,2-dimethyl-9-oxo-2,3,4,9-tetrahydro-5H-furo[3,2-f]pyrido[2,1-a]isoquinoline-8-carboxylic Acid] is higher in EC50: 0.1 to 1 µM for the first, > 1 µM for the second. The first is the more potent here.

Compared with `COCCCCc1cc2c(cc1-c1ccc(F)cc1)-c1cc(=O)c(C(=O)O)cn1[C@H](C(C)(C)C)C2` [Example 134, (S)-6-(tert-butyl)-10-(4-fluorophenyl)-9-(4-methoxybutyl)-2-oxo-6,7-dihydro-2H-pyrido[2,1-a]isoquinoline-3-carboxylic Acid], `COCCCOc1cc2c(cc1-c1ccc(Cl)cc1)-c1cc(=O)c(C(=O)O)cn1[C@H]1[C@@H]2COC1(C)C` [Example 137, (3aS,12bR)-10-(4-chlorophenyl)-11-(3-methoxypropoxy)-3,3-dimethyl-7-oxo-3,3a,7,12b-tetrahydro-1H-furo[3,4-c]pyrido[2,1-a]isoquinoline-6-carboxylic Acid] is higher in EC50: < 0.1 µM for the first, > 1 µM for the second. The first is the more potent here.

`COCCCOc1cc2c(cc1-c1ccccc1F)-c1cc(=O)c(C(=O)O)cn1[C@H]1[C@@H]2COC1(C)C` [Example 136, (3aS,12bR)-10-(2-fluorophenyl)-11-(3-methoxypropoxy)-3,3-dimethyl-7-oxo-3,3a,7,12b-tetrahydro-1H-furo[3,4-c]pyrido[2,1-a]isoquinoline-6-carboxylic Acid] and `COCCCOc1cc2c(cc1-c1ccccc1Cl)-c1cc(=O)c(C(=O)O)cn1[C@H]1[C@@H]2COC1(C)C` [Example 139, (3aS,12bR)-10-(2-chlorophenyl)-11-(3-methoxypropoxy)-3,3-dimethyl-7-oxo-3,3a,7,12b-tetrahydro-1H-furo[3,4-c]pyrido[2,1-a]isoquinoline-6-carboxylic Acid] cannot be ordered by EC50: < 0.1 µM for the first, < 0.1 µM for the second.

`COCCCOc1cc2c(cc1-c1cccc(Cl)c1)-c1cc(=O)c(C(=O)O)cn1[C@H]1[C@@H]2COC1(C)C` [Example 138, (3aS,12bR)-10-(3-chlorophenyl)-11-(3-methoxypropoxy)-3,3-dimethyl-7-oxo-3,3a,7,12b-tetrahydro-1H-furo[3,4-c]pyrido[2,1-a]isoquinoline-6-carboxylic Acid] and `COCCCOc1cc2c(cc1-c1cccc(OC)c1)-c1cc(=O)c(C(=O)O)cn1[C@H]1[C@@H]2COC1(C)C` [Example 140, (3aS,12bR)-10-(3-methoxyphenyl)-11-(3-methoxypropoxy)-3,3-dimethyl-7-oxo-3,3a,7,12b-tetrahydro-1H-furo[3,4-c]pyrido[2,1-a]isoquinoline-6-carboxylic Acid] cannot be ordered by EC50: < 0.1 µM for the first, < 0.1 µM for the second.

`COCCCOc1cc2c(cc1-c1cccs1)-c1cc(=O)c(C(=O)O)cn1[C@H]1[C@@H]2COC1(C)C` [Example 142, (3aS,12bR)-11-(3-methoxypropoxy)-3,3-dimethyl-7-oxo-10-(thiophen-2-yl)-3,3a,7,12b-tetrahydro-1H-furo[3,4-c]pyrido[2,1-a]isoquinoline-6-carboxylic Acid] and `COCCCOc1cc2c(cc1-c1ccsc1)-c1cc(=O)c(C(=O)O)cn1[C@H]1[C@@H]2COC1(C)C` [Example 143, (3aS,12bR)-11-(3-methoxypropoxy)-3,3-dimethyl-7-oxo-10-(thiophen-3-yl)-3,3a,7,12b-tetrahydro-1H-furo[3,4-c]pyrido[2,1-a]isoquinoline-6-carboxylic Acid] cannot be ordered by EC50: < 0.1 µM for the first, < 0.1 µM for the second.

For `Cn1ccc(-c2cc3c(c4c2OC(C)(C)C4)C[C@@H](C(C)(C)C)n2cc(C(=O)O)c(=O)cc2-3)n1` [Example 144, (S)-5-(tert-butyl)-2,2-dimethyl-12-(1-methyl-1H-pyrazol-3-yl)-9-oxo-2,3,4,9-tetrahydro-5H-furo[3,2-f]pyrido[2,1-a]isoquinoline-8-carboxylic Acid], the EC50 was > 1 µM.
